Reference: patent US10300065B2, “Method of treating or prevention of atherothrombotic events in patients with history of myocardial infarction” (ASTRAZENECA AB, priority 2015, dated 2019)

Legend:
[1] = system: platelets; details: either ticagrelor group
[2] = cited from earlier work
[3] = system: platelets; assay: VerifyNow P2Y12 assay (platelet reactivity, PRU), platelet function substudy; type: cell-based, human; details: for VerifyNow % inhibition Post dose / VerifyNow PRU Post dose: 2 h post dose; for VerifyNow % inhibition Post dose / VerifyNow PRU Post dose / VerifyNow % inhibition Pre dose / VerifyNow PRU Pre dose: mean (SD)
Description: The pharmacokinetics (PK) and pharmacodynamics of the 60 mg bid dose had not previously been studied. […] 180 patients who had received >4 weeks of study medication had blood sampling in the morning pre-maintenance dose and again 2 h post-dose. All patients were receiving aspirin. […] Well-known VerifyNow® P2Y12 assay and light transmittance aggregometry (LTA; ADP 20 uM) were performed. Groups were compared using Kruskal-Wallis test with significance attached to P<0.01 to allow for multiple group comparisons.

[4] = system: patients with a history of myocardial infarction; assay: PEGASUS-TIMI 54 trial, efficacy endpoints (intention-to-treat / full analysis set); type: in vivo, human
Text: The PEGASUS-TIMI 54 trial (also referred to as the PEGASUS trial or PEGASUS study herein) was a randomized, double-blind, placebo-controlled multinational clinical trial that enrolled over 21,000 patients at 1,161 sites in 31 countries. The protocol was approved by the relevant ethics committees at all participating sites. In the U.S., the PEGASUS trial was assigned a ClinicalTrials.gov number of NCT01225562.
Patients could be randomized regardless of their prior adenosine diphosphate (ADP) receptor blocker therapy or a lapse in therapy.
Randomization was performed using a central computerized telephone or web based system, and allocation was double-blind.
All patients enrolled in the PEGASUS trial were instructed to take open label aspirin at a dose of 75 to 150 mg daily.
A total of 1360 primary endpoint events would be required to provide approximately 90% power to detect a 20% relative risk reduction with the 90 mg twice daily dose and approximately 83% power to detect a 19% relative risk reduction with the 60 mg twice daily dose when each dose was compared individually with placebo. The primary efficacy analysis was conducted on an intention-to-treat basis, with each of the two doses individually compared to placebo, as a time to event analysis from randomization to the first occurrence of any element of the primary composite endpoint: cardiovascular death, myocardial infarction, or stroke. […] An exploratory analysis of both doses combined compared with placebo was prespecified.

[5] = 60 mg bd, 5695 patients with a coronary stent
[6] = 60 mg bid (N = 7045), at 3 years

CCCSc1nc(N[C@@H]2C[C@H]2c2ccc(F)c(F)c2)c2nnn([C@@H]3C[C@H](OCCO)[C@@H](O)[C@H]3O)c2n1 [Ticagrelor, (1S,2S,3R,5S)-3-[7-{[(1R,2S)-2-(3,4-difluorophenyl)cyclopropyl]amino}-5-(propylthio)-3H-[1,2,3]-triazolo[4,5-d]pyrimidin-3-yl]-5-(2-hydroxyethoxy)cyclopentane-1,2-diol]
VerifyNow Aspirin assay results vs placebo group [1]: no differences | increase in AUC ([2]; high-fat meal): 21% | mean absolute bioavailability ([2]; human, in vivo): about 36% | steady state volume of distribution ([2]; human, in vivo): 88 L | median tmax ([2]; in patients after administration of ticagrelor): 1.5 h | High platelet reactivity assessed by VerifyNow (PRU >208) ([3]; 60 mg, post dose): absent | High platelet reactivity assessed by VerifyNow (PRU >208), patients ([3]; 60 mg, pre-dose): 3.5% | VerifyNow % inhibition Post dose ([3]; ticagrelor 60 mg bid): 90 (13) % | VerifyNow PRU Post dose ([3]; ticagrelor 60 mg bid): 29 (39) PRU | VerifyNow % inhibition Pre dose ([3]; ticagrelor 60 mg bid): 78 (20) % | VerifyNow PRU Pre dose ([3]; ticagrelor 60 mg bid): 59 (63) PRU | VerifyNow % inhibition Post dose ([3]; ticagrelor 90 mg bid): 92 (8) % | VerifyNow PRU Post dose ([3]; ticagrelor 90 mg bid): 20 (19) PRU | VerifyNow % inhibition Pre dose ([3]; ticagrelor 90 mg bid): 83 (14) % | VerifyNow PRU Pre dose ([3]; ticagrelor 90 mg bid): 47 (43) PRU | Time to first stent thrombosis: HR ([4]; 60 mg bd vs placebo): 0.82 | Composite of CV Death/MI/Stroke, landmark: KM % at 12 months ([4]; 60 mg bd, 1-360 days): 2.7% | Composite of CV Death/MI/Stroke, landmark: Patients with events ([4]; 60 mg bd, 1-360 days): 189 | Composite of CV Death/MI/Stroke, landmark: Patients with events (%) ([4]; 60 mg bd, 1-360 days): (2.7%) | Stent thrombosis: Patients (%) with events [4, 5]: (0.7%) | Stent thrombosis: Patients with events [4, 5]: 41 | Composite of CV Death/MI/Stroke, landmark: Patients with events ([4]; 60 mg bd, 361 days or more): 298 | Composite of CV Death/MI/Stroke, landmark: Patients with events (%) ([4]; 60 mg bd, 361 days or more): (4.4%) | Stent thrombosis: KM % ([4]; 60 mg bd, at 36 months): 0.8% | Composite of CV Death/MI/Stroke, landmark: KM % at 24 months ([4]; 60 mg bd, cumulative from day 361 to day 720): 2.7% | Composite of CV Death/MI/Stroke, landmark: KM % at 36 months ([4]; 60 mg bd, cumulative from day 361 to day 1080): 5.2% | MI: ARR (%) ([4]; 60 mg bid): 0.72% | MI: NNT ([4]; 60 mg bid): 139 | Stroke: ARR (%) ([4]; 60 mg bid): 0.47% | Stroke: NNT ([4]; 60 mg bid): 213 | All Stroke: n ([4]; 60 mg bid (N = 7045)): 91 | Cardiovascular Death or Myocardial infarction: 3-year Kaplan-Meier estimate ([4]; 60 mg bid (N = 7045)): (6.77) % | Cardiovascular Death or Myocardial infarction: n ([4]; 60 mg bid (N = 7045)): 422 | Cardiovascular Death, Myocardial infarction, or Stroke: 3-year Kaplan-Meier estimate ([4]; 60 mg bid (N = 7045)): 7.77% | Cardiovascular Death, Myocardial infarction, or Stroke: n ([4]; 60 mg bid (N = 7045)): 487 | Cardiovascular Death: n ([4]; 60 mg bid (N = 7045)): 174 | Coronary Heart Disease Death or Myocardial infarction: 3-year Kaplan-Meier estimate ([4]; 60 mg bid (N = 7045)): (5.57) % | Coronary Heart Disease Death or Myocardial infarction: n ([4]; 60 mg bid (N = 7045)): 360 | Coronary Heart Disease Death, Myocardial infarction, or Stroke: 3-year Kaplan-Meier estimate ([4]; 60 mg bid (N = 7045)): (7.09) % | Coronary Heart Disease Death, Myocardial infarction, or Stroke: n ([4]; 60 mg bid (N = 7045)): 445 | Coronary Heart Disease Death: 3-year Kaplan-Meier estimate ([4]; 60 mg bid (N = 7045)): (1.72) % | Coronary Heart Disease Death: n ([4]; 60 mg bid (N = 7045)): 106 | Death from any cause: n ([4]; 60 mg bid (N = 7045)): 289 | Hospitalization for Unstable Angina: n ([4]; 60 mg bid (N = 7045)): 39 | Ischemic Stroke: 3-year Kaplan-Meier estimate ([4]; 60 mg bid (N = 7045)): (1.28) % | Ischemic Stroke: n ([4]; 60 mg bid (N = 7045)): 78 | Myocardial infarction as first-occurring component of the composite: n (patients with event) ([4]; 60 mg bid (N = 7045)): 283 | Myocardial infarction: n ([4]; 60 mg bid (N = 7045)): 285 | Stroke as first-occurring component of the composite: n (patients with event) ([4]; 60 mg bid (N = 7045)): 88 | Transient Ischemic Attack: n ([4]; 60 mg bid (N = 7045)): 17 | Urgent Coronary Revascularization for Unstable Angina: n ([4]; 60 mg bid (N = 7045)): 62 | Hospitalization for Unstable Angina: (%) [4, 6]: (0.61) % | Transient Ischemic Attack: (%) [4, 6]: (0.27) % | Urgent Coronary Revascularization for Unstable Angina: (%) [4, 6]: (0.95) % | Cardiovascular Death or Myocardial infarction: HR ([4]; 60 mg bid vs Placebo): 0.85 | Cardiovascular Death, Myocardial infarction, or Stroke: HR ([4]; 60 mg bid vs Placebo): 0.84 | Cardiovascular Death: HR ([4]; 60 mg bid vs Placebo): 0.83 | Coronary Heart Disease Death or Myocardial infarction: HR ([4]; 60 mg bid vs Placebo): 0.84 | Coronary Heart Disease Death, Myocardial infarction, or Stroke: HR ([4]; 60 mg bid vs Placebo): 0.83 | Coronary Heart Disease Death: HR ([4]; 60 mg bid vs Placebo): 0.80 | Coronary stent thrombosis: RRR ([4]; 60 mg bid vs Placebo): 18% | Death from any cause: HR ([4]; 60 mg bid vs Placebo): 0.89 | Hospitalization for Unstable Angina: HR ([4]; 60 mg bid vs Placebo): 1.05 | Ischemic Stroke: HR ([4]; 60 mg bid vs Placebo): 0.76 | Transient Ischemic Attack: HR ([4]; 60 mg bid vs Placebo): 1.00 | Urgent Coronary Revascularization for Unstable Angina: HR ([4]; 60 mg bid vs Placebo): 0.82 | coronary heart disease death, myocardial infarction, or stroke: RRR ([4]; 60 mg bid vs Placebo): 17%
